Results published in patent publication US8124032B2, “Microfluidic device and method of using same” (priority 2004, dated 2012).

System: single yeast cell (intracellular carboxylesterase, efflux process)
Experiment: Single-cell FDA metabolism (influx/hydrolysis/efflux), curve fitting to enzymatic model
Assay type: cell-based, Sacchomyces cereviase
From the text: In one of the embodiments of the invention, to study a model of a yeast metabolic process using the microfluidic device of the invention, the inventors selected a cell-permeable fluorogenic substrate, fluorescein diacetate (FDA), which is normally used to determine cell viability^42. After influx of FDA into a yeast cell, the intracellular enzyme carboxylesterase^43 hydrolyzes FDA to fluorescein, which will then be excreted from the cell (through efflux).
To examine the cells in an embodiment of the microfluidic device, the device was placed on the translation stage of an inverted microscope and simultaneous optical observation and fluorescent measurement were carried out. To carry out fluorescent intensity calibration in the microfluidic device, polystyrene beads (6 μm diameter, InSpeck™ Green, Molecular Probes) were used. Three-dimensional liquid flow control was accomplished by either electric or fluid potential.
With electric potential control, only low-conducting liquids, such as G7, H4 could be delivered to the cells (cell 3, 4, 5). The two buffers were G7 (28.5 mM HEPES, 256 mM D-glucose, pH=7.3) and H4 (285 mM HEPES, pH=4.3). 12 μM FDA was used, where appropriate. With fluid potential (<1 mm) control, highly conducting liquids such as YPD, NaCl, KCl, EDTA could also be used.
FIG. 16I depicts the schematic diagram of a yeast cell with a daughter bud, showing the relationship between the concentrations of extracellular FDA (A), intracellular FDA (B) and fluorescein (C) as a function of time (t). The kinetic model can be described by several equations. Equation (1) is the material balance of FDA (B) in the cell. Equation (2) is the material balance of fluorescein (C) in the cell. Equations (1) and (2) were derived from first principles as discussed below.
[formula] The notations are A: extracellular FDA (μM); B: intracellular FDA (μM); C: intracellular fluorescein (μM); S: cell surface area (μm^2) and V: cell volume (μm^3), as calculated from the diameter (μm) of the cell (D1) and its bud (D2); kb: transport coefficient (μm s^−1); Vm (μM s^−1) and Km (μM): Michaelis-Menten kinetic parameters for the carboxylesterase; Ve (μM μm s^−1) and Ke (μM): Michaelis-Menten kinetic parameters for the efflux process.
[formula] Equation (3) represents the increasing rate of the carboxylesterase activity as indicated by the Michaelis-Menten parameter Vm, where k is the rate constant (μM s^−2). Derivation for Equation (1): Material Balance of FDA in the Cell
Here, T0, T1 and T2 are the time at which influx, hydrolysis and efflux start, respectively.
In the self-control mode, when influx is not allowed, kb=0. […] During hydrolysis (T1 to T2), there is no influx and efflux, i.e. kb=0, Vm>0, and Ve=0. Finally, during efflux (after T2), there is no influx and hydrolysis, i.e. kb=0, Vm=0, and Ve>0. In the lost-control mode, kb>0, Vm>0, and Ve>0. In the “death” mode, kb=0, Vm=0, and Ve=0. In this case, the cell appears dead when there is no change in the concentration of cellular fluorescein.
Curve-fitting experiments were also carried out for two other single yeast cells under various stimuli, see FIG. 17.

[1] = cell 3, T0 2140 s, self-control mode
[2] = cell 4, T0 2560 s, self-control mode
[3] = cell 4, T0 4950 s, self-control mode
[4] = cell 4, T0 6590 s, self-control mode
[5] = cell 4, T0 8627 s, lost-control mode
[6] = cell 5, T0 208 s, self-control mode
[7] = cell 5, T0 1030 s, self-control mode
[8] = cell 5, T0 2026 s, self-control mode
[9] = cell 5, T0 3300 s, self-control mode
[10] = cell 5, T0 5600 s, lost-control mode
[11] = cell ‡ (another single yeast cell similar to cell 3), T0 2200 s, self-control mode

CC(=O)Oc1ccc2c(c1)Oc1cc(OC(C)=O)ccc1C21OC(=O)c2ccccc21 [FDA, fluorescein diacetate]
Vm0 (initial value of Vm, carboxylesterase) [1]: 0.0012 µM/s | k (rate constant of increase of Vm) [1]: 4 10^−6 μM s^−2 | Vm0 (initial value of Vm, carboxylesterase) [2]: 0.002 µM/s | k (rate constant of increase of Vm) [2]: 25 10^−6 μM s^−2 | Vm0 (initial value of Vm, carboxylesterase) [3]: 0.01 µM/s | k (rate constant of increase of Vm) [3]: 25 10^−6 μM s^−2 | Vm0 (initial value of Vm, carboxylesterase) [4]: 0.04 µM/s | k (rate constant of increase of Vm) [4]: 0 10^−6 μM s^−2 | Vm0 (initial value of Vm, carboxylesterase) [5]: 0.009 µM/s | k (rate constant of increase of Vm) [5]: 0 10^−6 μM s^−2 | Vm0 (initial value of Vm, carboxylesterase) [6]: 0.02 µM/s | k (rate constant of increase of Vm) [6]: 0 10^−6 μM s^−2 | Vm0 (initial value of Vm, carboxylesterase) [7]: 0.005 µM/s | k (rate constant of increase of Vm) [7]: 0 10^−6 μM s^−2 | Vm0 (initial value of Vm, carboxylesterase) [8]: 0.0018 µM/s | k (rate constant of increase of Vm) [8]: 2 10^−6 μM s^−2 | Vm0 (initial value of Vm, carboxylesterase) [9]: 0.004 µM/s | k (rate constant of increase of Vm) [9]: 15 10^−6 μM s^−2 | Vm0 (initial value of Vm, carboxylesterase) [10]: 0.015 µM/s | k (rate constant of increase of Vm) [10]: 0 10^−6 μM s^−2 | Vm0 (initial value of Vm, carboxylesterase) [11]: 0.007 µM/s | k (rate constant of increase of Vm) [11]: 4 10^−6 μM s^−2
